This passage reports IC50 results from patent publication US8748429B2, “CGRP receptor antagonists” (Bristol-Myers Squibb Company, priority 2011, dated 2014).

pIC50: −log10 of the molar value.

For the test, the target named is Human CGRP Receptor (Homo sapiens, UniProt O60894+Q16602). The test is described as follows: Human CGRP Binding.
Sequence of Human CGRP Receptor (Q16602 23-461): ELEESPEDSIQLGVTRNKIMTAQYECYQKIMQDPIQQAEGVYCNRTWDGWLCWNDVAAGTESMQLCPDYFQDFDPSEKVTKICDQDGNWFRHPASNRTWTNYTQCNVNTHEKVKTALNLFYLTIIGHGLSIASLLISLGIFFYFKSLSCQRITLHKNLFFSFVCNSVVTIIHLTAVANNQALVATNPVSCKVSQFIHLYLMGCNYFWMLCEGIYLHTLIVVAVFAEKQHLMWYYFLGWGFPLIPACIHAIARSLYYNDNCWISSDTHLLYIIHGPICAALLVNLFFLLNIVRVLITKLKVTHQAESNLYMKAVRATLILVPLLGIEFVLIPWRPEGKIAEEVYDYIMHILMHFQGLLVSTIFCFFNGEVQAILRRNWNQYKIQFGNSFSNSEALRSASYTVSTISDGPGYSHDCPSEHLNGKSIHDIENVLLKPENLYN
Sequence of Human CGRP Receptor (O60894 27-148): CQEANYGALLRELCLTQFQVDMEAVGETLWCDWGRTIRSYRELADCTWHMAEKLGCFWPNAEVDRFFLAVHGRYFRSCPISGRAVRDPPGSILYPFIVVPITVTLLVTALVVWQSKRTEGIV
Compound `CC(C)(C)OC(=O)N[C@@H]1c2nccnc2C(CC(=O)N2CCC(n3c(=O)[nH]c4ncccc43)CC2)=CC[C@H]1c1cccc(F)c1F` [Example 1, tert-butyl (5S,6S,Z)-6-(2,3-difluorophenyl)-9-(2-oxo-2-(4-(2-oxo-2,3-dihydro-1H-imidazo[4,5-b]pyridin-1-yl)piperidin-1-yl)ethyl)-6,7-dihydro-5H-cyclohepta[b]pyrazin-5-ylcarbamate] gave a pIC50 of 6.24.
Next, `N[C@@H]1c2nccnc2C(CC(=O)N2CCC(n3c(=O)[nH]c4ncccc43)CC2)=CC[C@H]1c1cccc(F)c1F` [Example 2, 1-(1-(2-((5S,6S,Z)-5-amino-6-(2,3-difluorophenyl)-6,7-dihydro-5H-cyclohepta[b]pyrazin-9-yl)acetyl)piperidin-4-yl)-1H-imidazo[4,5-b]pyridin-2(3H)-one]: 6.33.
The compound `CC(C)(C)OC(=O)N[C@@H]1c2nccnc2[C@H](OC(=O)N2CCC(n3c(=O)[nH]c4ncccc43)CC2)CC[C@H]1c1cccc(F)c1F` [Example 3, (5R,8S,9S)-9-(tert-butoxycarbonylamino)-8-(2,3-difluorophenyl)-6,7,8,9-tetrahydro-5H-cyclohepta[b]pyrazin-5-yl 4-(2-oxo-2,3-dihydro-1H-imidazo[4,5-b]pyridin-1-yl)piperidine-1-carboxylate] showed a pIC50 of 8.96.
Next, `N[C@@H]1c2nccnc2[C@H](OC(=O)N2CCC(n3c(=O)[nH]c4ncccc43)CC2)CC[C@H]1c1cccc(F)c1F` [Example 4, (5R,8S,9S)-9-amino-8-(2,3-difluorophenyl)-6,7,8,9-tetrahydro-5H-cyclohepta[b]pyrazin-5-yl 4-(2-oxo-2,3-dihydro-1H-imidazo[4,5-b]pyridin-1-yl)piperidine-1-carboxylate]: 9.96.
Next, `CC(C)(C)OC(=O)N[C@@H]1c2nccnc2[C@H](NC(=O)N2CCC(n3c(OCOCC[Si](C)(C)C)nc4ncccc43)CC2)CC[C@H]1c1cccc(F)c1F` [Example 5, tert-butyl (5S,6S,9R)-6-(2,3-difluorophenyl)-9-(4-(2-((2-(trimethylsilyl)ethoxy)methoxy)-1H-imidazo[4,5-b]pyridin-1-yl)piperidine-1-carboxamido)-6,7,8,9-tetrahydro-5H-cyclohepta[b]pyrazin-5-ylcarbamate]: 7.13; `CC(C)(C)OC(=O)N[C@@H]1c2nccnc2[C@H](NC(=O)N2CCC(n3c(=O)n(COCC[Si](C)(C)C)c4ncccc43)CC2)CC[C@H]1c1cccc(F)c1F` [Example 6, tert-butyl (5S,6S,9R)-6-(2,3-difluorophenyl)-9-(4-(2-oxo-3-((2-(trimethylsilyl)ethoxy)methyl)-2,3-dihydro-1H-imidazo[4,5-b]pyridin-1-yl)piperidine-1-carboxamido)-6,7,8,9-tetrahydro-5H-cyclohepta[b]pyrazin-5-ylcarbamate]: 6.04.
`N[C@@H]1c2nccnc2[C@H](NC(=O)N2CCC(n3c(=O)[nH]c4ncccc43)CC2)CC[C@H]1c1cccc(F)c1F` [Example 7, N-((5R,8S,9S)-9-amino-8-(2,3-difluorophenyl)-6,7,8,9-tetrahydro-5H-cyclohepta[b]pyrazin-5-yl)-4-(2-oxo-2,3-dihydro-1H-imidazo[4,5-b]pyridin-1-yl)piperidine-1-carboxamide] showed a pIC50 of 8.96.
Then `N[C@@H]1c2scnc2[C@H](OC(=O)N2CCC(n3c(=O)[nH]c4ncccc43)CC2)CC[C@H]1c1cccc(F)c1F` [Example 8, (4R,7S,8S)-8-amino-7-(2,3-difluorophenyl)-5,6,7,8-tetrahydro-4H-cyclohepta[d]thiazol-4-yl 4-(2-oxo-2,3-dihydro-1H-imidazo[4,5-b]pyridin-1-yl)piperidine-1-carboxylate], with 10.02.
As for `N[C@@H]1c2sc(C(F)(F)F)nc2[C@H](OC(=O)N2CCC(n3c(=O)[nH]c4ncccc43)CC2)CC[C@H]1c1cccc(F)c1F` [Example 9, (4R,7S,8S)-8-amino-7-(2,3-difluorophenyl)-2-(trifluoromethyl)-5,6,7,8-tetrahydro-4H-cyclohepta[d]thiazol-4-yl 4-(2-oxo-2,3-dihydro-1H-imidazo[4,5-b]pyridin-1-yl)piperidine-1-carboxylate], the negative-log IC50 (pIC50) was 9.89.
